Drawing on patent US9174931B2, “Compositions for the treatment of diabetes and pre-diabetes” (CELLIX BIO PRIVATE LIMITED, priority 2013, dated 2015), this text covers solubility for four molecules.

Each structure is given as a SMILES string. In brackets after ≈: the same amount, converted by molar mass.

The data set can be described thus: Water solubility of test compounds compared with EPA. Type of data set: physicochemical. The following applies: thermodynamic from solid; distilled water added in small portions until clear solution. As for the experimental part:
Measurement of the water solubility of the test compound was accomplished by using methods well known to those skilled in the art. Specifically, to a weighed amount of the test compounds of Example-1, Example-2, Example-3 and EPA were taken in separate vials; distilled water was added in small portions until a clear solution was obtained. The water solubility is calculated by dividing the weight of salt, in mg, by the volume of the solution, in mL. The water solubility of the compounds of example-1, example-2, example-3 compared to EPA alone were as follows: […]
As to `CC/C=C\C/C=C\C/C=C\C/C=C\C/C=C\CCCC(=O)OCC(C)(C)[C@@H](OC(=O)c1ccccc1OC(=O)c1ccccc1OC(C)=O)C(=O)NCCC(=O)O` [Example-3, amino(3,3-dimethylguanidino)methaniminium3-((R)-2-((2-((2-acetoxybenzoyl)oxy)benzoyl)oxy)-4-((5Z,8Z,11Z,14Z,17Z)-icosa-5,8,11,14,17-pentaenoyloxy)-3,3-dimethylbutanamido)propanoate], the solubility worked out at 98 mg/mL (≈ 125 mM).

As to `CC/C=C\C/C=C\C/C=C\C/C=C\C/C=C\CCCC(=O)O` [EPA, Eicosapentaenoic Acid, reference compound], the solubility was < 0.3 mg/mL. Consider `CC/C=C\C/C=C\C/C=C\C/C=C\C/C=C\CCCC(=O)OCC(C)(C)[C@@H](O)C(=O)NCCC(=O)O` [Example-1, amino(3,3-dimethylguanidino)methaniminium 3-((R)-2-hydroxy-4-((5Z,8Z,11Z,14Z,17Z)-icosa-5,8,11,14,17-pentaenoyloxy)-3,3-dimethylbutanamido) propanoate], for which the solubility turned out to be 60 mg/mL (≈ 119 mM). `CC/C=C\C/C=C\C/C=C\C/C=C\C/C=C\CCCC(=O)OCC(C)(C)[C@@H](OC(=O)c1cccnc1)C(=O)NCCC(=O)O` [Example-2, amino(3,3-dimethylguanidino)methaniminium 3-((R)-4-((5Z,8Z,11Z,14Z,17Z)-icosa-5,8,11,14,17-pentaenoyloxy)-3,3-dimethyl-2-(nicotinoyloxy)butanamido)propanoate] displayed a solubility of 103 mg/mL (≈ 169 mM).
